Measurements reported in PubChem BioAssay AID1963845 (Molecular Pharmacology Branch, DTP, NCI, 2024).

Tested on: 429239-143-T-J1-PDC complex spheroid viability
Assay: Anticancer human tumor 429239-143-T-J1-PDC patient-derived small cell lung carcinoma cell line growth inhibition [POLQ]
Settings: for IC50: curve of first compound; for viability, T/C: stronger effect = lower value
Description: Multicellular complex tumor spheroid response to Polymerase (POL) inhibitors (novobiocin, ART-558, RP6685) in combination with a variety of drugs and investigational agents in selected tumor cell lines
The POL inhibitors (novobiocin, ART-558, and RP6685) were evaluated both individually and in combination with standard of care and investigational anticancer small molecules within a complex spheroid model of solid tumors. . Complex spheroids include a stromal component modeled by human endothelial cells (HUVEC) and fibroblasts modeled by human mesenchymal stem cells (MSCs). The concentration ranges selected for each drug and investigational agent were based upon clinically achievable concentrations if the clinical Cmax of the agent was known.
Compounds. The drugs and investigational agents: novobiocin (NSC847541), ART-558 (NSC835418), RP-6685 (NSC848927), peposertib (NSC802822), ceralasertib (NSC780249), elimusertib (NSC800525), camonsertib (NSC841442), AZD-1390 (NSC803789), olaparib (NSC753686), talazoparib (NSC767125), rucaparib (NSC756644), sotorasib (NSC818433), MRTX-1133 (NSC836407), SN-38 (NSC673596), topotecan (NSC609699), epotoside (NSC141540), doxorubicin (NSC123127), gemcitabine (NSC613327), 5-fluorouracil (NSC19893), paclitaxel (NSC125973), vemurafenib (NSC761431), MSA-2 (NSC828583), SN-011 (NSC837082), adavosertib (NSC754352), prexasertib (NSC758257), carboplatin (NSC241240) and oxaliplatin (NSC266046), were obtained from the National Cancer Institute (NCI) Developmental Therapeutics Program Chemical Repository (21). The FDA-approved anticancer drug set is available from the Developmental Therapeutics Program at https://dtp.cancer.gov/organization/dscb/obtaining/. […] The stock solutions were prepared in dimethyl sulfoxide (DMSO, Sigma-Aldrich, St. Louis, MO, cat. D2650), except for the platinum compounds which were prepared in saline (Quality Biological, Gaithersburg, MD, cat. 114-055-101), at 800-fold the tested concentration and stored at -70 degrees C prior to their use. All drugs and investigational agents were tested over a range starting from a high concentration at or near the clinical Cmax and decreasing in half-log increments. If the clinical Cmax for an agent had not been determined, the highest concentration tested was 10 microM, except for SN-38, which was tested at a high concentration of 1 microM.
Cell Culture. All cells were maintained in an incubator at 37 degrees C and 5% CO2 with 95% humidity. The PDC lines were cultured according to standard operating procedures established by the NCI PDMR (https://pdmr.cancer.gov). Table 3 of the manuscript, lists the cell lines along with the number of the three cell types plated to form the mct-spheroids and media for tumor cell growth. After thawing, all PDC lines, except 997537-175-T-J1-PDC and 415267-285-R-J2-PDC, were cultured in Matrigel-coated flasks prepared with a working solution of 1X Ham's F-12 nutrient mix, without supplementation (Thermo Fisher Scientific, cat. 11765054), 100 U/mL penicillin-streptomycin (Thermo Fisher Scientific, cat. 15140122), and 2.5% Matrigel (Corning Inc., Corning, NY, cat. 354248) for the first three passages. The two PDC lines 997537-175-T-J1-PDC and 415267-285-R-J2-PDC were cultured on uncoated flasks. The 857933-349-R-J2-PDC line was cultured in 6C/Colon 1B media containing advanced DMEM/F-12 (Thermo Fisher Scientific, cat. 12634028), 10 mM HEPES (Thermo Fisher Scientific, cat. 15630080), 1X GlutaMAX supplement (Thermo Fisher Scientific, cat. 35050061), 0.1 mg/mL primocin (InvivoGen, San Diego, CA, cat. ant-pm-2), 10% defined fetal bovine serum, heat inactivated (HyClone Laboratories Inc., Logan, UT, cat. SH30070.03HI), 50% L-WRN conditioned media (ATCC, cat. CRL-3276), 1.25 mM N-Acetyl-L-cysteine (Sigma-Aldrich, cat. A9165), 10 mM nicotinamide (Sigma-Aldrich, cat. N0636), 1X B-27 supplement (Thermo Fisher Scientific, cat. 17504044), 1X N-2 supplement (Thermo Fisher Scientific, cat. […]

[1] = second compound 0.0316 µM, first compound 0.00316 µM
[2] = second compound 0.0316 µM, first compound 0.01 µM
[3] = second compound 0.0316 µM, first compound 0.0316 µM
[4] = second compound 0.0316 µM, first compound 0.1 µM
[5] = second compound 0.1 µM, first compound 0.00316 µM
[6] = second compound 0.1 µM, first compound 0.01 µM
[7] = second compound 0.1 µM, first compound 0.0316 µM
[8] = second compound 0.1 µM, first compound 0.1 µM
[9] = second compound 0.316 µM, first compound 0.00316 µM
[10] = second compound 0.316 µM, first compound 0.01 µM
[11] = second compound 0.316 µM, first compound 0.0316 µM
[12] = second compound 0.316 µM, first compound 0.1 µM
[13] = second compound 1 µM, first compound 0.00316 µM
[14] = second compound 1 µM, first compound 0.01 µM
[15] = second compound 1 µM, first compound 0.0316 µM
[16] = second compound 1 µM, first compound 0.1 µM
[17] = second compound 3.16 µM, first compound 0.00316 µM
[18] = second compound 3.16 µM, first compound 0.01 µM
[19] = second compound 3.16 µM, first compound 0.0316 µM
[20] = second compound 3.16 µM, first compound 0.1 µM
[21] = second compound 10 µM, first compound 0.00316 µM
[22] = second compound 10 µM, first compound 0.01 µM
[23] = second compound 10 µM, first compound 0.0316 µM
[24] = second compound 10 µM, first compound 0.1 µM
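Further: luminescence signal used as surrogate measure of viable cells; spheroids exposed to compounds for seven days before readout.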
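Wherever viability, T/C is given: 100% = DMSO vehicle control viability as luminescence relative to vehicle.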

`COc1cccc(OCCCN)c1-c1cc(Nc2cnc(C#N)cn2)n[nH]1` + Cc1cccc(N(C)C(=O)C2C(O)CCN2c2nc(C)cc(C(F)(F)F)c2C#N)c1 was tested, and the IC50 (second compound 0.0316 µM) was 377 nM, the IC50 (second compound 0.1 µM) was 339 nM and the IC50 (second compound 0.316 µM) was 248 nM. It also gave an IC50 (second compound 1 µM) of 256 nM, an IC50 (second compound 3.16 µM) of 273 nM and an IC50 (second compound 10 µM) of 227 nM. The viability, T/C [1] was 101%, the viability, T/C [2] was 110% and the viability, T/C [3] was 87.7%. For the same molecule, the viability, T/C [4] was 73.1%, the viability, T/C (second compound 0.0316 µM, first compound 0.316 µM) was 52.7% and the viability, T/C (second compound 0.0316 µM, first compound 1 µM) was 39.3%. The viability, T/C [5] was 101%, the viability, T/C [6] was 106% and the viability, T/C [7] was 92.9%. For the same molecule, the viability, T/C [8] was 72%, the viability, T/C (second compound 0.1 µM, first compound 0.316 µM) was 52.7% and the viability, T/C (second compound 0.1 µM, first compound 1 µM) was 36.7%. For the same molecule, the viability, T/C [9] was 106%, the viability, T/C [10] was 108% and the viability, T/C [11] was 86.4%. For the same molecule, the viability, T/C [12] was 67.2%, the viability, T/C (second compound 0.316 µM, first compound 0.316 µM) was 46.6% and the viability, T/C (second compound 0.316 µM, first compound 1 µM) was 32%. For the same molecule, the viability, T/C [13] was 108%, the viability, T/C [14] was 105% and the viability, T/C [15] was 90.8%. For the same molecule, the viability, T/C [16] was 68.1%, the viability, T/C (second compound 1 µM, first compound 0.316 µM) was 46.5% and the viability, T/C (second compound 1 µM, first compound 1 µM) was 33.1%. It also gave a viability, T/C [17] of 117%, a viability, T/C [18] of 108% and a viability, T/C [19] of 93.8%. For the same molecule, the viability, T/C [20] was 65.4%, the viability, T/C (second compound 3.16 µM, first compound 0.316 µM) was 49.8% and the viability, T/C (second compound 3.16 µM, first compound 1 µM) was 34.9%. It also gave a viability, T/C [21] of 118%, a viability, T/C [22] of 92.1% and a viability, T/C [23] of 92.1%. The viability, T/C [24] was 66.4%, the viability, T/C (second compound 10 µM, first compound 0.316 µM) was 39.3% and the viability, T/C (second compound 10 µM, first compound 1 µM) was 27.7%.

For `CC[C@@]1(O)C(=O)OCc2c1cc1n(c2=O)Cc2cc3c(CN(C)C)c(O)ccc3nc2-1` + Cc1cccc(N(C)C(=O)C2C(O)CCN2c2nc(C)cc(C(F)(F)F)c2C#N)c1, the IC50 (second compound 0.0316 µM) was 10.5 nM, the IC50 (second compound 0.1 µM) was 15.5 nM and the IC50 (second compound 0.316 µM) was 15.5 nM. It also gave an IC50 (second compound 1 µM) of 15.3 nM, an IC50 (second compound 3.16 µM) of 12.7 nM and an IC50 (second compound 10 µM) of 12.8 nM. The viability, T/C (second compound 0.0316 µM, first compound 0.000316 µM) was 102%, the viability, T/C (second compound 0.0316 µM, first compound 0.001 µM) was 98.8% and the viability, T/C [1] was 94.6%. The viability, T/C [2] was 51.7%, the viability, T/C [3] was 18.5% and the viability, T/C [4] was 18.2%. The viability, T/C (second compound 0.1 µM, first compound 0.000316 µM) was 100%, the viability, T/C (second compound 0.1 µM, first compound 0.001 µM) was 106% and the viability, T/C [5] was 96.3%. For the same molecule, the viability, T/C [6] was 69.9%, the viability, T/C [7] was 15.8% and the viability, T/C [8] was 18.5%. The viability, T/C (second compound 0.316 µM, first compound 0.000316 µM) was 102%, the viability, T/C (second compound 0.316 µM, first compound 0.001 µM) was 107% and the viability, T/C [9] was 88.7%. The viability, T/C [10] was 70.3%, the viability, T/C [11] was 14.9% and the viability, T/C [12] was 18.3%. It also gave a viability, T/C (second compound 1 µM, first compound 0.000316 µM) of 99.1%, a viability, T/C (second compound 1 µM, first compound 0.001 µM) of 105% and a viability, T/C [13] of 103%. The viability, T/C [14] was 68.8%, the viability, T/C [15] was 17.9% and the viability, T/C [16] was 16.9%. It also gave a viability, T/C (second compound 3.16 µM, first compound 0.000316 µM) of 106%, a viability, T/C (second compound 3.16 µM, first compound 0.001 µM) of 90.4% and a viability, T/C [17] of 94.2%. For the same molecule, the viability, T/C [18] was 58%, the viability, T/C [19] was 19.3% and the viability, T/C [20] was 18.9%. It also gave a viability, T/C (second compound 10 µM, first compound 0.000316 µM) of 101%, a viability, T/C (second compound 10 µM, first compound 0.001 µM) of 96.2% and a viability, T/C [21] of 94.3%. It also gave a viability, T/C [22] of 57.9%, a viability, T/C [23] of 20.4% and a viability, T/C [24] of 19.6%.
